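How tested: cells in 96-well plates exposed to compound for 48 hours at five concentrations. At the GI50, growth is halved. Definition used: TGI = concentration required for complete inhibition of growth.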
Assays:
Assay in all cases: NCI-60 cell line screen, 48 h
[1] = test system: EKVX NSCLC
[2] = test system: HT29 colon
[3] = test system: M14 melanoma
[4] = test system: MDA-MB-435
[5] = test system: NCI-H23 lung
[6] = test system: SF-268 CNS
[7] = test system: SF-295 CNS
[8] = test system: SF-539 CNS
[9] = test system: SK-MEL-28 melanoma
[10] = test system: SNB-19 CNS

| SMILES | TGI [1] | TGI [2] | TGI [3] | TGI [4] | TGI [5] | TGI [6] | TGI [7] | TGI [8] | TGI [9] | TGI [10] | GI50 [1] | GI50 [2] | GI50 [3] | GI50 [4] | GI50 [5] | GI50 [6] | GI50 [7] | GI50 [8] | GI50 [9] | GI50 [10] |
| --- | --- | --- | --- | --- | --- | --- | --- | --- | --- | --- | --- | --- | --- | --- | --- | --- | --- | --- | --- | --- |
| O=C(CCN1CCCCC1)N1CCc2c([nH]c3ccccc23)C1c1cccnc1 (stereo unspecified) | 98.2 µM | 75.4 µM | 42.2 µM | 75.1 µM | > 100 µM | > 87.9 µM | > 100 µM | > 85.7 µM | 37.2 µM | > 100 µM |  |  |  |  |  |  |  |  |  |  |
| COC(=O)c1oc2c(C(=O)/C=C/c3ccc(OC)cc3)c(OCCN(C)C)ccc2c1C | 19 µM | 9.83 µM | 25.5 µM | 16.3 µM | 26.1 µM | 20.5 µM | 29.3 µM | 24.1 µM | 20.9 µM | 23.5 µM | 6.4 µM | 3.72 µM | 10.6 µM | 4.57 µM | 9.76 µM | 5.63 µM | 14.2 µM | 11.3 µM | 7.73 µM | 10.9 µM |
| CN1CCN(Cc2ccc(NC(=O)c3cncc(C#Cc4cnc(N)c5cccnc45)c3)cc2C(F)(F)F)CC1 | > 50 µM | > 50 µM | 0.604 µM |  | > 50 µM | > 50 µM | > 50 µM | 1.78 µM | 1.85 µM | > 50 µM | 1.36 µM | 0.157 µM | 0.143 µM | 0.15 µM | 0.496 µM | 0.466 µM | 2.07 µM | 0.288 µM | 0.176 µM | 2.05 µM |
| CCOC(=O)C(C#N)C1=CC(=O)C(=O)c2ccc(O)cc21 (stereo unspecified) | > 100 µM | > 100 µM | 51.3 µM | 39.9 µM | 58 µM | > 100 µM | > 100 µM | > 100 µM | > 100 µM | > 100 µM |  |  |  |  |  |  |  |  |  |  |
| Cc1cn(Cc2ccc(C34CC5CC(CC(C5)C3)C4)c(O)c2)c(=O)[nH]c1=O | 29.1 µM | 26.5 µM | 26.9 µM | 9.02 µM | 20.7 µM | 41.8 µM | 18.5 µM | 23 µM | 23.7 µM | 31.1 µM | 8.21 µM | 11.1 µM | 11.5 µM | 2.62 µM | 8.11 µM | 12.7 µM | 4.56 µM | 9.45 µM | 6.78 µM | 13.9 µM |
| O=C1c2ccccc2-c2c1c1ccccc1c(=O)n2CCCNCCn1c2c(c3ccccc3c1=O)C(=O)c1ccccc1-2 | 27.2 µM | 10 µM | 10.9 µM | 6.11 µM | 11.6 µM | 26.5 µM | 27.5 µM | 27.8 µM | 38 µM | 11.6 µM | 12.5 µM | 2.42 µM | 2.8 µM | 2.24 µM | 2.25 µM | 7.6 µM | 7.77 µM | 14.6 µM | 16 µM | 2.48 µM |
| CSc1nc2c(c(=O)n1C)CN(C1CCCCC1)C(=O)C(c1ccccc1)N2 (stereo unspecified) | > 100 µM | > 100 µM | > 100 µM | > 100 µM | > 100 µM | > 100 µM | > 100 µM | > 100 µM | 83.3 µM | > 100 µM | 38.8 µM | 33.3 µM | 43.5 µM | 19.1 µM | 51.2 µM | 25.3 µM | 35.3 µM | 51.7 µM | 17.1 µM | 36.7 µM |
| O=C1O/C(=C/c2ccccc2)C(c2ccccc2)=C1O | > 100 µM | > 100 µM | > 100 µM | 89.1 µM | 44.7 µM |  | > 100 µM | > 100 µM | > 100 µM | > 100 µM |  |  |  |  |  |  |  |  |  |  |
| CC1(C)CCCC(C)(C2CCC3(C)C2C(O)CC2C4(C)CCC(O)C(C)(C)C4CCC23C)O1 (stereo unspecified) | > 100 µM | > 100 µM | > 100 µM | > 100 µM | > 100 µM | > 100 µM | > 100 µM | > 100 µM | > 100 µM | > 100 µM |  |  |  |  |  |  |  |  |  |  |
| Nc1nc(/C=C\c2ccccc2)nc(N2CCN(c3ccccc3)CC2)n1 | > 100 µM | 41.8 µM | > 100 µM | 70.2 µM |  | > 100 µM | > 100 µM | > 100 µM | 79.6 µM | 60 µM | 59.1 µM | 18 µM | 30.2 µM | 28.4 µM |  | 42.2 µM | 30 µM | 41.1 µM | 30.9 µM | 20.4 µM |
| CC(=O)N1N=C(c2ccc(Nc3nc(Nc4ccc(F)cc4)nc(Nc4ccc(F)cc4)n3)cc2)CC1c1ccc(N(C)C)cc1 (stereo unspecified) | > 100 µM | 28.9 µM | 9.79 µM | 11.1 µM | 26.7 µM | 43.3 µM | 50.7 µM | 41.2 µM | 19.3 µM | > 100 µM | 15.7 µM | 3.79 µM | 2.79 µM | 3 µM | 4.1 µM | 12.8 µM | 4.34 µM | 12.8 µM | 4.33 µM | 16.1 µM |
| O=C(c1ccc(Cl)cc1)C(O)c1ccc(Cl)cc1 (stereo unspecified) | > 100 µM | > 100 µM | > 100 µM | > 100 µM | > 100 µM | > 100 µM | > 100 µM | > 100 µM | > 100 µM | > 100 µM |  |  |  |  |  |  |  |  |  |  |
| CO[C@H]1CC(O[C@@H]2/C(C)=C/C[C@@H]3C[C@@H](C[C@]4(CC[C@H](C)[C@@H](C5CCCCC5)O4)O3)OC(=O)[C@@H]3C=C(C)/C(=N/O)[C@H]4OC/C(=C\C=C\[C@@H]2C)[C@]43O)O[C@@H](C)C1O (stereo partly specified) | 2.64 µM | 2.05 µM | 4.62 µM | 2.41 µM | 2.65 µM | 2.45 µM | 1.87 µM | 1.93 µM | 1.97 µM | 9.01 µM | 0.951 µM | 0.966 µM | 1.5 µM | 1.05 µM | 1.01 µM | 0.982 µM | 0.888 µM | 0.948 µM | 0.952 µM | 1.66 µM |
| CCCCCC/C=C\CCCCCCCCCC1=C(CN2CCN(C)CC2)C(=O)C=C(OC)C1=O | 27.9 µM | 23.9 µM | 7.73 µM | 21.1 µM | 15.4 µM | 19.7 µM | 25.3 µM | 40.1 µM | 28.2 µM | 24.1 µM |  |  |  |  |  |  |  |  |  |  |
